# Data published in patent publication US10968266B2, “GIP peptide analogues” (University of Copenhagen, priority 2014, dated 2021).
# No end group written: not given here.
# Assays:
# human GIP receptor [1] = target: T1, human GIP receptor (Homo sapiens, UniProt P48546); assay: Competitive binding assay with 125I-labelled GIP radioligands, COS-7 cells transfected with human GIP receptor (Example 7); conditions: for fold change GIP(1-30)NH2 / Competitive binding fold (fold change of GIP(1-30)NH2 affinity): relative to GIP(1-30)NH2; for Competitive binding fold (fold change of GIP(1-30)NH2 affinity): radioligand 125I-GIP(1-42)
# T1 construct: host or cells: COS-7 cells, transient transfection (calcium phosphate precipitation), pCMV-Script vector
# T1 sequence (P48546 22-466): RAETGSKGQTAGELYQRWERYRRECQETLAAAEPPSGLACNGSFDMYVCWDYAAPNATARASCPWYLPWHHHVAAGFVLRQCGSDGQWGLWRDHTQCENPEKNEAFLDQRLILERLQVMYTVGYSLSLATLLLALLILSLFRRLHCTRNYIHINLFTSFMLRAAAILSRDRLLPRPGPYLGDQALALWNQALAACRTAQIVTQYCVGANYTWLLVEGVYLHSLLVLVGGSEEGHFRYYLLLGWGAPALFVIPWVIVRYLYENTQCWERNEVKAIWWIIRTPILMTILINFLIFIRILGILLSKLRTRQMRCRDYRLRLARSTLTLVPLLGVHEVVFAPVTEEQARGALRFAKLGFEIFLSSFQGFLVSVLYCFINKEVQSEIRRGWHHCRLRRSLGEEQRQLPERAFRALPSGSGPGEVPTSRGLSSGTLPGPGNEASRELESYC
# Method: Transfection of COS-7 cells was performed using the calcium phosphate precipitation method with chloroquine addition as previously described (Kissow et al., 2012). […] Nonspecific binding was determined as the binding of radioligand to untransfected cells. All determinations were made in duplicates, and all experiments repeated at least three times. The samples were analyzed for radioactivity using a Wallac Wizard 1470 Gamma Counter (GMI Inc., Minnesota, USA). The number “n” refers to individual experiments with separate transfections although from same cell line. IC50, EC50, and Kd/Ki values were determined by nonlinear regression. […] Statistical analyses (unpaired t-tests) of two parameters were also performed with GraphPad Prism 6.0. The calculations of Bmax and Ki values were based on the formula for one class of binding sites in homologous competition binding studies and the Cheng Prussoffs formula, respectively (DeBlasi et al., 1989). Kd is the dissociation constant determined by homologous receptor binding. […] Schild plots were performed with log (DR-1) (ordinate) and log(antagonist concentration) (abscissa) to estimate the slopes and Ki values (Lazareno and Birdsall, 1993).
# human GIP receptor [2] = target: T1, human GIP receptor; assay: cAMP accumulation assay (agonism, antagonism, Schild analysis), COS-7 cells transfected with human GIP receptor (Example 7); type: cell-based; conditions: for Slope of Schild plot: GIP(1-42) dose-response curves with fixed antagonist concentrations
# Method: COS-7 cells were grown in 10% CO2 and at 37° C. in Dulbecco's modified Eagle's medium 1885 supplemented with 10% fetal bovine serum, 2 mM glutamine, 180 units/ml penicillin, and 45 µg/ml streptomycin. Transfection of COS-7 cells was performed using the calcium phosphate precipitation method with chloroquine addition as previously described (Kissow et al., 2012).
# Two days after transfection the cells were washed once with HEPES buffered saline (HBS) and incubated with HBS and 0.5 mM 3-isobutyl-1-methylxanthine (IBMX) for 30 minutes at 37° C. […] After ligand incubation, the HitHunter™ cAMP XS assay (an enzyme fragment complementation-based assay, DiscoveRx, Birmingham, United Kingdom) was carried out according to the manufacturer's instructions. All experiments were made in duplicates, and repeated at least three times. Luminescence was measured by Perkin Elmer™ EnVision 2104 Multilabled reader (Skovlunde, Danmark). In brief, the cells were lysed in the wells, the enzyme fragment-cAMP-antibody, an enzyme fragment and the enzyme substrates were added followed by 1 hour incubation at room temperature on shaker tray. The other enzyme fragment was added to the wells and incubated for 4 hours on shaker tray followed by measurements of luminescence. The ligand-induced cAMP competed with the binding of antibody to the first enzyme fragment and left the two fragments to fuse. The enzyme complex hydrolyzed the substrates and yielded luminescence. The number “n” refers to individual experiments with separate transfections although from same cell line.
# IC50, EC50, and Kd/Ki values were determined by nonlinear regression. These, as well as maximal binding capacity (Bmax) values and Schild plot analysis were carried out with the GraphPad Prism 6.0 software (GraphPad, San Diego, Calif., USA) and Microsoft Excel™. Statistical analyses (unpaired t-tests) of two parameters were also performed with GraphPad Prism 6.0. The calculations of Bmax and Ki values were based on the formula for one class of binding sites in homologous competition binding studies and the Cheng Prussoffs formula, respectively (DeBlasi et al., 1989). Kd is the dissociation constant determined by homologous receptor binding. […] Schild plots were performed with log (DR-1) (ordinate) and log(antagonist concentration) (abscissa) to estimate the slopes and Ki values (Lazareno and Birdsall, 1993).
# [3] = inhibition of GIP(1-42) at 50-80% of max receptor activation
Compound,Competitive binding fold (fold change of GIP(1-30)NH2 affinity) (human GIP receptor [1]) [fold],Slope of Schild plot (human GIP receptor [2]),Intrinsic agonistic activity in cAMP accumulation (human GIP receptor [2]; agonist mode),IC50 (human GIP receptor [2]; [3]) [nM],other results
CC[C@H](C)[C@H](NC(=O)[C@H](CO)NC(=O)[C@H](Cc1ccc(O)cc1)NC(=O)[C@H](CC(=O)O)NC(=O)[C@H](CO)NC(=O)[C@@H](NC(=O)[C@H](Cc1ccccc1)NC(=O)[C@@H](NC(=O)CNC(=O)[C@H](CCC(=O)O)NC(=O)[C@H](C)N)[C@@H](C)O)[C@@H](C)CC)C(=O)N[C@@H](C)C(=O)N[C@@H](CCSC)C(=O)N[C@@H](CC(=O)O)C(=O)N[C@@H](CCCCN)C(=O)N[C@H](C(=O)N[C@@H](Cc1c[nH]cn1)C(=O)N[C@@H](CCC(N)=O)C(=O)N[C@@H](CCC(N)=O)C(=O)N[C@@H](CC(=O)O)C(=O)N[C@@H](Cc1ccccc1)C(=O)N[C@H](C(=O)N[C@@H](CC(N)=O)C(=O)N[C@@H](Cc1c[nH]c2ccccc12)C(=O)N[C@@H](CC(C)C)C(=O)N[C@@H](CC(C)C)C(=O)N[C@@H](C)C(=O)N[C@@H](CCC(N)=O)C(=O)N[C@@H](CCCCN)C(N)=O)C(C)C)[C@@H](C)CC [GIP(2-30)NH2],16,0.49±0.14,weak partial agonist,21.7,"IC50 (human GIP receptor [1]; radioligand 125I-GIP(1-30)NH2): 0.026 µM; fold change GIP(1-30)NH2 (human GIP receptor [1]; radioligand 125I-GIP(1-30)NH2): 84.3 fold; IC50 (human GIP receptor [1]; radioligand 125I-GIP(2-30)NH2): 0.0027 µM; fold change GIP(1-30)NH2 (human GIP receptor [1]; radioligand 125I-GIP(2-30)NH2): 10.5 fold; IC50 (human GIP receptor [1]; radioligand 125I-GIP(3-30)NH2): 0.0077 µM; fold change GIP(1-30)NH2 (human GIP receptor [1]; radioligand 125I-GIP(3-30)NH2): 4.6 fold; Fold lower agonist potency than GIP(1-30)NH2 (human GIP receptor [2]; agonist mode): > 3000 fold; log EC50, cAMP accumulation (human GIP receptor [2]; agonist mode, given with negative sign): −8.43±0.33"
CC[C@H](C)[C@H](NC(=O)[C@H](CO)NC(=O)[C@H](Cc1ccc(O)cc1)NC(=O)[C@H](CC(=O)O)NC(=O)[C@H](CO)NC(=O)[C@@H](NC(=O)[C@H](Cc1ccccc1)NC(=O)[C@@H](NC(=O)CNC(=O)[C@@H](N)CCC(=O)O)[C@@H](C)O)[C@@H](C)CC)C(=O)N[C@@H](C)C(=O)N[C@@H](CCSC)C(=O)N[C@@H](CC(=O)O)C(=O)N[C@@H](CCCCN)C(=O)N[C@H](C(=O)N[C@@H](Cc1c[nH]cn1)C(=O)N[C@@H](CCC(N)=O)C(=O)N[C@@H](CCC(N)=O)C(=O)N[C@@H](CC(=O)O)C(=O)N[C@@H](Cc1ccccc1)C(=O)N[C@H](C(=O)N[C@@H](CC(N)=O)C(=O)N[C@@H](Cc1c[nH]c2ccccc12)C(=O)N[C@@H](CC(C)C)C(=O)N[C@@H](CC(C)C)C(=O)N[C@@H](C)C(=O)N[C@@H](CCC(N)=O)C(=O)N[C@@H](CCCCN)C(N)=O)C(C)C)[C@@H](C)CC [hGIP(3-30)],,,,,Fold shift in the dose-response curve of human GIP(1-42) (human GIP receptor [2]; 1 μM antagonist): 281 fold
CC[C@H](C)[C@H](NC(=O)[C@H](CO)NC(=O)[C@H](Cc1ccc(O)cc1)NC(=O)[C@H](CC(=O)O)NC(=O)[C@@H](N)CO)C(=O)N[C@@H](C)C(=O)N[C@@H](CCSC)C(=O)N[C@@H](CC(=O)O)C(=O)N[C@@H](CCCCN)C(=O)N[C@H](C(=O)N[C@@H](Cc1c[nH]cn1)C(=O)N[C@@H](CCC(N)=O)C(=O)N[C@@H](CCC(N)=O)C(=O)N[C@@H](CC(=O)O)C(=O)N[C@@H](Cc1ccccc1)C(=O)N[C@H](C(=O)N[C@@H](CC(N)=O)C(=O)N[C@@H](Cc1c[nH]c2ccccc12)C(=O)N[C@@H](CC(C)C)C(=O)N[C@@H](CC(C)C)C(=O)N[C@@H](C)C(=O)N[C@@H](CCC(N)=O)C(=O)N[C@@H](CCCCN)C(N)=O)C(C)C)[C@@H](C)CC [GIP(8-30)NH2],89,,,133,
"CC[C@H](C)[C@H](N)C(=O)N[C@@H](CO)C(=O)N[C@@H](CC(=O)O)C(=O)N[C@@H](Cc1ccc(O)cc1)C(=O)N[C@@H](CO)C(=O)N[C@H](C(=O)N[C@@H](C)C(=O)N[C@@H](CCSC)C(=O)N[C@@H](CC(=O)O)C(=O)N[C@@H](CCCCN)C(=O)N[C@H](C(=O)N[C@@H](Cc1c[nH]cn1)C(=O)N[C@@H](CCC(N)=O)C(=O)N[C@@H](CCC(N)=O)C(=O)N[C@@H](CC(=O)O)C(=O)N[C@@H](Cc1ccccc1)C(=O)N[C@H](C(=O)N[C@@H](CC(N)=O)C(=O)N[C@@H](Cc1c[nH]c2ccccc12)C(=O)N[C@@H](CC(C)C)C(=O)N[C@@H](CC(C)C)C(=O)N[C@@H](C)C(=O)N[C@@H](CCC(N)=O)C(=O)N[C@@H](CCCCN)C(N)=O)C(C)C)[C@@H](C)CC)[C@@H](C)CC [GIP(7-30)NH2, reference compound]",,0.17±0.03,,137,
DYSIAMDKIHQQDFVNWLLAQK-NH2 [GIP(9-30)NH2],,,,,"cAMP accumulation logIC50 ± SEM (antagonism) (human GIP receptor [2]; inhibition of GIP(1-42) at 50-80% of max receptor activation, given with negative sign): −6.35 ± 0.6; Fold lower antagonistic potency (right-shift) compared to GIP(3-30)NH2 (human GIP receptor [2]; inhibition of submaximal GIP(1-42) activation): 38 fold"
CC[C@H](C)[C@H](NC(=O)[C@H](CO)NC(=O)[C@H](Cc1ccc(O)cc1)NC(=O)[C@H](CC(=O)O)NC(=O)[C@H](CO)NC(=O)[C@@H](NC(=O)[C@H](Cc1ccccc1)NC(=O)[C@@H](NC(=O)CN)[C@@H](C)O)[C@@H](C)CC)C(=O)N[C@@H](C)C(=O)N[C@@H](CCSC)C(=O)N[C@@H](CC(=O)O)C(=O)N[C@@H](CCCCN)C(=O)N[C@H](C(=O)N[C@@H](Cc1c[nH]cn1)C(=O)N[C@@H](CCC(N)=O)C(=O)N[C@@H](CCC(N)=O)C(=O)N[C@@H](CC(=O)O)C(=O)N[C@@H](Cc1ccccc1)C(=O)N[C@H](C(=O)N[C@@H](CC(N)=O)C(=O)N[C@@H](Cc1c[nH]c2ccccc12)C(=O)N[C@@H](CC(C)C)C(=O)N[C@@H](CC(C)C)C(=O)N[C@@H](C)C(=O)N[C@@H](CCC(N)=O)C(=O)N[C@@H](CCCCN)C(N)=O)C(C)C)[C@@H](C)CC [GIP(4-30)NH2],24,0.75±0.02,,108,
"CC[C@H](C)[C@H](NC(=O)[C@H](CO)NC(=O)[C@H](Cc1ccc(O)cc1)NC(=O)[C@H](CC(=O)O)NC(=O)[C@H](CO)NC(=O)[C@@H](NC(=O)[C@H](Cc1ccccc1)NC(=O)[C@@H](NC(=O)CNC(=O)[C@H](CCC(=O)O)NC(=O)[C@H](C)NC(=O)[C@@H](N)Cc1ccc(O)cc1)[C@@H](C)O)[C@@H](C)CC)C(=O)N[C@@H](C)C(=O)N[C@@H](CCSC)C(=O)N[C@@H](CC(=O)O)C(=O)N[C@@H](CCCCN)C(=O)N[C@H](C(=O)N[C@@H](Cc1c[nH]cn1)C(=O)N[C@@H](CCC(N)=O)C(=O)N[C@@H](CCC(N)=O)C(=O)N[C@@H](CC(=O)O)C(=O)N[C@@H](Cc1ccccc1)C(=O)N[C@H](C(=O)N[C@@H](CC(N)=O)C(=O)N[C@@H](Cc1c[nH]c2ccccc12)C(=O)N[C@@H](CC(C)C)C(=O)N[C@@H](CC(C)C)C(=O)N[C@@H](C)C(=O)N[C@@H](CCC(N)=O)C(=O)N[C@@H](CCCCN)C(N)=O)C(C)C)[C@@H](C)CC [GIP(1-30)NH2, reference compound]",,,full agonist,,
"porcine GIP(3-42): Porcine GIP(3-42), arginine in position 18 and serine in position 34; custom synthesized by PolyPeptide Laboratories (EGTFISDYSIAMDKIRQQDFVNWLLAQKGKKSDWKHNITQ) [reference compound]",,,neither of the GIP(3-42) variants had any intrinsic agonistic activity,,"Antagonism of GIP(1-42)-induced cAMP response (in words) (human GIP receptor [2]): higher potency compared to human GIP (3-42), yet not as high as human GIP(3-30)NH2"
